Source: patent US20160120861A1, “Compositions and Methods for Treating an Arrhythmia with an Opioid Antagonist” (PURDUE PHARMA L.P., priority 2013, published 2016)

Experiment: QT study following E14 principles: ECG effects (QTcI) of BTDS alone, BTDS with naltrexone, naltrexone and moxifloxacin relative to placebo
Conditions: for Mean change from baseline (QTcI): 24-hr ECG at steady state
Description: A QT study following E14 principles regarding design, conduct, analysis, and interpretation was conducted with the following objectives
Primary: • To evaluate the ECG effects of 10, 40, and 80 mcg/hr buprenorphine delivered by a Buprenorphine Transdermal System (BTDS) alone, or by BTDS dosed with naltrexone tablets, relative to placebo in healthy male and female subjects
To evaluate the ECG effects of moxifloxacin relative to placebo (assay sensitivity)
To evaluate the ECG effects of BTDS+Naltrexone (NTX) vs. BTDS alone
To evaluate the ECG effects of naltrexone alone vs. placebo
The study was a randomized, double-blind, placebo and positive controlled, parallel group study with the following parameters:
• Healthy male or female subjects aged 18 to 55 years, inclusive • Heart rate between 45-85 bpm • No clinically significant medical history or disease • Subjects with personal or family history of prolonged QT interval or abnormal cardiovascular condition excluded
60 subjects/treatment group
• 1) BTDS alone (Butrans® 5, 10, 20, 40, 80 mcg/hr) • 2) Moxifloxacin (400 mg single doses on Days 6, 13, 17) • 3) Placebo • 4) Naltrexone alone (NTX 50 mg q12 h days 4-17) • 5) BTDS+Naltrexone (BTDS 10, 20, 40, 80 mcg/hr with NTX 50 mg q12 h days 4-17)
BTDS or matching placebo patches were applied according to a dose-escalation and dose tapering scheme
24-hr ECG were collected at steady-state for each BTDS dose level at Days 6 (10 mcg/hr), 13 (40 mcg/hr) and 17 (80 mcg/hr).
Continuous 24-hr 12-lead digital Holter ECG collections were performed as follows: • Two 24-hour baseline recordings (Days −2 and −1) • Three 24-hour periods on-treatment for Days 6 (10 mcg/hr), 13 (40 mcg/hr) and 17 (80 mcg/hr).
ECGs were extracted at 13 time points (0, 0.5, 1, 1.5, 2, 2.5, 3, 4, 7, 10, 13, 18, 23.5 hours) over each 24-hour ECG recording period.
Subjects rested supine for at least 10 minutes prior to each nominal ECG extraction time and activity was limited for the prior 2 hours.
4 ECGs were extracted and quantified at each nominal time point by a blinded central ECG laboratory.
The primary QT correction for heart rate was QTcI. 104 baseline ECGs were used to determine subject-specific HR correction.
Placebo-corrected change from baseline QTcI means and 90% CIs were calculated using a mixed effects general linear model with covariates for time, treatment, time by treatment interaction, and sex.

Structure (SMILES) | >60 ms inc, N (%) (both, human, in vivo) | New >480 ms, N (%) (both, human, in vivo) | New >500 ms, N (%) (both, human, in vivo) | QTcI results (positive control, assay sensitivity) (in vivo) | >30-60 ms inc, N (%) (Day 6, QTcI, healthy subjects) | >60 ms inc, N (%) (Day 6, QTcI, healthy subjects) | New >480 ms, N (%) (Day 6, QTcI, healthy subjects) | New >500 ms, N (%) (Day 6, QTcI, healthy subjects) | Mean change from baseline (QTcI) (Day 6, healthy subjects) | >30-60 ms inc, N (%) (Day 13, QTcI, healthy subjects) | >60 ms inc, N (%) (Day 13, QTcI, healthy subjects) | New >480 ms, N (%) (Day 13, QTcI, healthy subjects) | New >500 ms, N (%) (Day 13, QTcI, healthy subjects) | Mean change from baseline (QTcI) (Day 13, healthy subjects) | >30-60 ms inc, N (%) (Day 17, QTcI, healthy subjects) | >60 ms inc, N (%) (Day 17, QTcI, healthy subjects) | New >480 ms, N (%) (Day 17, QTcI, healthy subjects) | New >500 ms, N (%) (Day 17, QTcI, healthy subjects) | Mean change from baseline (QTcI) (Day 17, healthy subjects) | Mean change in baseline of the QT interval as compared to buprenorphine alone (naltrexone administered with buprenorphine)
COc1c(N2C[C@@H]3CCCN[C@@H]3C2)c(F)cc2c(=O)c(C(=O)O)cn(C3CC3)c12 [Moxifloxacin] | 0 N (%) | 0 N (%) | 0 N (%) | as expected |  |  |  |  |  |  |  |  |  |  |  |  |  |  |  | 
O=C1CC[C@@]2(O)[C@H]3Cc4ccc(O)c5c4[C@@]2(CCN3CC2CC2)[C@H]1O5 [NTX, naltrexone] |  |  |  |  | 0 N (%) | 0 N (%) | 0 N (%) | 0 N (%) | 1.5 ms | 1 (2%) N (%) | 0 N (%) | 0 N (%) | 0 N (%) | -1.7 ms | 1 (2%) N (%) | 0 N (%) | 0 N (%) | 0 N (%) | -0.9 ms | reduced
